{
  "source": "patent US7622458B2",
  "about": "“Combination of ET-743 and a 5-fluorouracil pro-drug for cancer treatment” (Pharma Mar, S.A.U., priority 2004, dated 2009)",
  "origin": "cited, not measured here",
  "key": {"[1]": {"test_system": "human tumor xenografts, including melanoma and ovarian and breast carcinoma", "conditions": "xenografts grown in athymic mice"}, "[2]": {"test_system": "sarcoma and breast and ovarian carcinoma", "conditions": "1-, 3-, 24-, 72-hour i.v. infusion and 1 hour daily x5 schedules; patients with sarcoma and breast and ovarian carcinoma"}},
  "data": [
    {"smiles": "COc1cc2c(cc1O)CCN[C@]21CS[C@@H]2c3c(OC(C)=O)c(C)c4c(c3[C@H](COC1=O)N1[C@@H]2[C@H]2c3c(cc(C)c(OC)c3O)C[C@@H]([C@@H]1O)N2C)OCO4", "note": "[ET-743, ecteinascidin 743]", "values": [
      {"measurement": "Antineoplastic activity against human tumor xenografts", "setting": "[1]", "result": "potent antineoplastic activity"},
      {"measurement": "Clinical responses in phase I studies", "setting": "[2]", "result": "Promising responses"}
    ]}
  ]
}
